Data published in PubChem BioAssay (NCI).
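All cell lines were grown in 96-well plates and treated with compound for 48 hours. The concentration for 50% growth inhibition is given as GI50. TGI marks complete inhibition of growth.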

Key:
Experiment in all cases: NCI anticancer screen, dose series, 48 h; in the data active = GI50 below about 0.43 µM; inactive = the rest
SK-MEL-2 melanoma = test system: SK-MEL-2 melanoma
OVCAR-8 ovarian = test system: OVCAR-8 ovarian
UACC-62 melanoma = test system: UACC-62 melanoma
BT-549 breast = test system: BT-549 breast
TK-10 renal = test system: TK-10 renal
LOX IMVI melanoma = test system: LOX IMVI melanoma
MOLT-4 leukemia = test system: MOLT-4 leukemia
SN12C renal = test system: SN12C renal
NCI-H226 lung = test system: NCI-H226 lung
HOP-62 NSCLC = test system: HOP-62 NSCLC
OVCAR-3 ovarian = test system: OVCAR-3 ovarian
MDA-MB-435 = test system: MDA-MB-435
COLO 205 colon = test system: COLO 205 colon
ACHN renal = test system: ACHN renal
MDA-MB-231 breast = test system: MDA-MB-231 breast
SR leukemia = test system: SR leukemia
RPMI-8226 leukemia = test system: RPMI-8226 leukemia
NCI/ADR-RES ovarian = test system: NCI/ADR-RES ovarian
A549 NSCLC = test system: A549 NSCLC
UACC-257 melanoma = test system: UACC-257 melanoma
SF-539 CNS = test system: SF-539 CNS
DU-145 prostate = test system: DU-145 prostate
SF-268 CNS = test system: SF-268 CNS
U251 CNS = test system: U251 CNS
CCRF-CEM leukemia = test system: CCRF-CEM leukemia
SW-620 colon = test system: SW-620 colon
NCI-H522 lung = test system: NCI-H522 lung
RXF 393 renal = test system: RXF 393 renal
HCC-2998 colon = test system: HCC-2998 colon
SF-295 CNS = test system: SF-295 CNS
MALME-3M melanoma = test system: MALME-3M melanoma
786-0 renal = test system: 786-0 renal
SK-MEL-28 melanoma = test system: SK-MEL-28 melanoma
MCF7 breast = test system: MCF7 breast
NCI-H460 lung = test system: NCI-H460 lung
HT29 colon = test system: HT29 colon
PC-3 prostate = test system: PC-3 prostate
IGROV1 ovarian = test system: IGROV1 ovarian
NCI-H23 lung = test system: NCI-H23 lung
T-47D breast = test system: T-47D breast
SK-OV-3 ovarian = test system: SK-OV-3 ovarian
K-562 leukemia = test system: K-562 leukemia
EKVX NSCLC = test system: EKVX NSCLC
SNB-75 CNS = test system: SNB-75 CNS
HOP-92 NSCLC = test system: HOP-92 NSCLC
HS 578T breast = test system: HS 578T breast
UO-31 renal = test system: UO-31 renal
CAKI-1 renal = test system: CAKI-1 renal
M14 melanoma = test system: M14 melanoma
OVCAR-5 ovarian = test system: OVCAR-5 ovarian
HCT-15 colon = test system: HCT-15 colon
A498 renal = test system: A498 renal
SNB-19 CNS = test system: SNB-19 CNS
HL-60(TB) leukemia = test system: HL-60(TB) leukemia
SK-MEL-5 melanoma = test system: SK-MEL-5 melanoma
KM12 colon = test system: KM12 colon
OVCAR-4 ovarian = test system: OVCAR-4 ovarian
HCT-116 colon = test system: HCT-116 colon

CC/C(=C\c1ccc(N(C)C)cc1)c1ccncc1
29.7 µM: TGI (OVCAR-3 ovarian)
67.2 µM: TGI (HS 578T breast)
6.09 µM: TGI (NCI/ADR-RES ovarian)
33.7 µM: TGI (HOP-62 NSCLC)
54.6 µM: TGI (M14 melanoma)
> 100 µM: TGI (SK-MEL-2 melanoma) | TGI (OVCAR-8 ovarian) | TGI (UACC-62 melanoma) | TGI (TK-10 renal) | TGI (LOX IMVI melanoma) | TGI (MOLT-4 leukemia) | TGI (SN12C renal) | TGI (NCI-H226 lung) | TGI (ACHN renal) | TGI (A549 NSCLC) | TGI (UACC-257 melanoma) | TGI (DU-145 prostate) | TGI (SF-268 CNS) | TGI (CCRF-CEM leukemia) | TGI (SW-620 colon) | TGI (NCI-H522 lung) | TGI (HCC-2998 colon) | TGI (MALME-3M melanoma) | TGI (SK-MEL-28 melanoma) | TGI (MCF7 breast) | TGI (NCI-H460 lung) | TGI (HT29 colon) | TGI (PC-3 prostate) | TGI (IGROV1 ovarian) | TGI (NCI-H23 lung) | TGI (T-47D breast) | TGI (K-562 leukemia) | TGI (EKVX NSCLC) | TGI (UO-31 renal) | TGI (CAKI-1 renal) | TGI (OVCAR-5 ovarian) | TGI (HCT-15 colon) | TGI (A498 renal) | TGI (SNB-19 CNS) | TGI (KM12 colon) | TGI (OVCAR-4 ovarian) | TGI (HCT-116 colon)
20.8 µM: TGI (RXF 393 renal)
23.5 µM: TGI (BT-549 breast)
46.4 µM: TGI (786-0 renal)
21.1 µM: TGI (COLO 205 colon) | TGI (SF-295 CNS)
48.7 µM: TGI (U251 CNS)
16.4 µM: TGI (SK-MEL-5 melanoma)
9.94 µM: TGI (HOP-92 NSCLC)
74.6 µM: TGI (SF-539 CNS)
47.7 µM: TGI (SNB-75 CNS)
30.1 µM: TGI (SR leukemia)
55.2 µM: TGI (RPMI-8226 leukemia)
29.3 µM: TGI (HL-60(TB) leukemia)
inactive: GI50 (SK-MEL-2 melanoma) 8.51 µM | GI50 (OVCAR-8 ovarian) 6.16 µM | GI50 (UACC-62 melanoma) 5.04 µM | GI50 (BT-549 breast) 4.38 µM | GI50 (TK-10 renal) 12.9 µM | GI50 (LOX IMVI melanoma) 4.05 µM | GI50 (MOLT-4 leukemia) 5.09 µM | GI50 (SN12C renal) 5.96 µM | GI50 (NCI-H226 lung) 14.1 µM | GI50 (HOP-62 NSCLC) 4.33 µM | GI50 (OVCAR-3 ovarian) 4.13 µM | GI50 (MDA-MB-435) 1680 nM | GI50 (COLO 205 colon) 3.94 µM | GI50 (ACHN renal) 5.87 µM | GI50 (MDA-MB-231 breast) 6.53 µM | GI50 (SR leukemia) 3.24 µM | GI50 (RPMI-8226 leukemia) 5.13 µM | GI50 (NCI/ADR-RES ovarian) 2380 nM | GI50 (A549 NSCLC) 5.5 µM | GI50 (UACC-257 melanoma) 11.6 µM | GI50 (SF-539 CNS) 7.35 µM | GI50 (DU-145 prostate) 9.47 µM | GI50 (SF-268 CNS) 11.2 µM | GI50 (U251 CNS) 4.82 µM | GI50 (CCRF-CEM leukemia) 8.13 µM | GI50 (SW-620 colon) 4.04 µM | GI50 (NCI-H522 lung) 5.05 µM | GI50 (RXF 393 renal) 4.25 µM | GI50 (HCC-2998 colon) 6.58 µM | GI50 (SF-295 CNS) 3.44 µM | GI50 (MALME-3M melanoma) 4.52 µM | GI50 (786-0 renal) 6.31 µM | GI50 (SK-MEL-28 melanoma) > 100 µM | GI50 (MCF7 breast) 9.31 µM | GI50 (NCI-H460 lung) 3.79 µM | GI50 (HT29 colon) 4.43 µM | GI50 (PC-3 prostate) 10.3 µM | GI50 (IGROV1 ovarian) 5.47 µM | GI50 (NCI-H23 lung) 4.96 µM | GI50 (T-47D breast) 4.16 µM | GI50 (SK-OV-3 ovarian) 7.87 µM | GI50 (K-562 leukemia) 3.78 µM | GI50 (EKVX NSCLC) 3.29 µM | GI50 (SNB-75 CNS) 6.88 µM | GI50 (HOP-92 NSCLC) 1890 nM | GI50 (HS 578T breast) 4.13 µM | GI50 (UO-31 renal) 6.57 µM | GI50 (CAKI-1 renal) 3.42 µM | GI50 (M14 melanoma) 4.37 µM | GI50 (OVCAR-5 ovarian) 33 µM | GI50 (HCT-15 colon) 2820 nM | GI50 (A498 renal) 4.35 µM | GI50 (SNB-19 CNS) 9.09 µM | GI50 (HL-60(TB) leukemia) 4.06 µM | GI50 (SK-MEL-5 melanoma) 3.43 µM | GI50 (KM12 colon) 3.84 µM | GI50 (OVCAR-4 ovarian) 8.67 µM | GI50 (HCT-116 colon) 3.89 µM
53.3 µM: TGI (SK-OV-3 ovarian)
7.51 µM: TGI (MDA-MB-435)
80.1 µM: TGI (MDA-MB-231 breast)
